According to US20220381772A1, “SYSTEMS AND METHODS FOR EVALUATING NK CELLS” (The Regents of The University of California, priority 2019, published 2022):
“Also recorded” adds a separate entry of the source.

B1: rhIFN-γ: recombinant human IFN-γ from Biolegend (protein, UniProt P01579 24-161, looked up)
Interferon gamma: QDPYVKEAENLKKYFNAGHSDVADNGTLFLGILKNWKEESDRKIMQSQIVSFYFKLFKNFKDDQSIQKSVETIKEDMNVKFFNSNKKKRDDFEKLTNYSVTDLNVQRKAIHELIQVMAELSPAAKTGKRKRSQMLFRG

Experiments:
Format in all cases: cell-based, human
MP2 tumors [1] = assay: Paclitaxel-induced cell death, propidium iodide staining; settings: for cell death: poorly differentiated MP2, 18-20 hours
Experimental: (§1) P-values of <0.05 were obtained for differences between MP2 vs. PL12 and Capan at the concentrations of 10 nM, 200 nM, 600 nM, 1000 nM and […] of Paclitaxel (n=2 per each experimental condition).
(§2) The viability of cells was determined by staining with propidium iodide (n=3/each experimental condition).

Capan tumors = assay: as above
Experimental: as §1

PL12 tumors = assay: as above; settings: for cell death: well-differentiated PL12, compared with MP2, 18-20 hours
Experimental: as §1

[2] = tested on: NK-supernatant differentiated MP2 tumors; assay: as above; settings: for cell death: MP2 differentiated with NK-supernatants 5 days, paclitaxel 10 nM to 600 nM, 18-24 h
Experimental: as §2

MP2 tumors [3] = assay: Surface expression of CD44, CD54, MHC-class I and B7H1, flow cytometry; settings: rhIFN-γ 200 U/mL, 24 h
Experimental: (§3) Freshly isolated NK cells were left untreated or treated with IL-2 (1000 U/mL) or the combination of anti-CD16 mAb (3 μg/mL) and IL-2 (1000 U/mL) for 18 h before they were used in co-cultures with ^51Cr labeled MP2, and PL12. NK cell-mediated cytotoxicity was determined using 4-hour ^51Cr release assay, and the lytic units 30/10^6 cells were determined using inverse number of NK cells required to lyse 30% of the target cells×100 (n=5 independent experiments). (FIG. 25A). Cells were left untreated or treated with rhTNF-α (20 ng/mL), rhIFN-γ (200 U/mL) or the combination of rhTNF-α (20 ng/mL) and […] (200 U/mL) for 24 h. Afterwards, the cells were detached and the surface expression of CD44, CD54, MHC-class I and B7H1 were assessed using staining with PE conjugated antibodies followed by flow cytometric analysis. Isotype control antibodies were used as controls (FIG. 25B) MP2 and Capan cells were treated as described in FIG. 25A, and were detached from the tissue culture plates, labeled with ^51Cr and used in a standard 4-hour ^51Cr release assay using IL-2 (1000 U/mL) treated NK cells. Pre-treatment of NK cells with IL-2 (1000 U/mL) were carried out for 18-24 h. Percent cytotoxicity was determined at different effector to target ratio and the lytic units 30/10^6 cells were determined using inverse number of NK cells required to lyse 30% of the tumor cells×100 (FIG. 25C).

OSCCs = assay: Chemo-drug induced cell death, propidium iodide staining and flow cytometry; settings: patient-derived differentiated OSCCs
Experimental: (§4) OSCCs or OSCSCs were seeded at 1×10^5 cells/well in 24-well plate for 24 h prior to the addition of highly purified NK cells pre-treated with IL-2 (1000 units/ml) for 24 h. NK cells were added to tumor cells at 2:1 effector to target ratio. At time 0 when NK cells were added to the tumor culture, a final concentration of 10 μg/ml of propidium iodide (PI) was also added. The cells were then subsequently tracked for over 72 h using time-lapse microscopy with Nikon Eclipse Ti-E inverted microscope fitted with a culture chamber to provide cells with a stable temperature of 37° C. with 5% CO2. An image was taken every 15 min and a representation is shown at day 1, day 1½, and day 3. OSCSCs but not OSCCs which are lysed take up PI and appear orange in the time-lapse (A). NK cells were left untreated or treated with IL-2 (1000 units/ml), anti-CD16 mAb (3 μg/ml), or a combination of IL-2 (1000 units/ml) and anti-CD16 mAb (3 μg/ml) for 18 h before they were added to ^51Cr-labeled OSCSCs and OSCCs. NK cell-mediated cytotoxicity was determined using a standard 4 h ^51Cr release assay and the lytic units 30/10^6 cells were determined using inverse number of NK cells required to lyse 30% of the target cells×100 (B). NK cells were treated as described in (B) and each NK sample was either cultured in the absence or presence of OSCSCs and OSCCs at an NK cell to target cell ratio of 0.5:1. After an overnight incubation, the supernatants were removed from the co-cultures and the levels of IFN-γ secretion were determined using specific ELISAs. One of minimum three representative experiments is shown in each of (C). The surface expression of MHC class I and CD44 on OSCCs and OSCSCs were assessed with flow cytometric analysis after staining with the respective PE-conjugated antibodies. Isotype control antibodies were used as control. The numbers on the right hand corner are the percentages and the mean channel fluorescence intensities for each histogram (D). The surface expression of CD338 on OSCCs and OSCSCs was assessed by flow cytometric analysis after staining with PE-conjugated CD338 (right graphs in the histogram). Isotype control antibodies were used as control (left graphs in the histograms) (E). OSCCs and OSCSCs were left untreated or treated with 10-80 μg/ml of cisplatin for 18 h, after which the tumor cells were washed with 1×PBS, detached, and stained with propidium iodide (PI) and percent cell death was determined using flow cytometric analysis (F).

OSCSCs = assay: as above
Experimental: as §4

MP2 = assay: Resistance to NK cell mediated cytotoxicity after cytokine treatment, 4-hour 51Cr release assay; settings: rhTNF-α 20 ng/mL or rhIFN-γ 200 U/mL; IL-2 treated NK cells
Experimental: as §3

[4] = stem-like/poorly differentiated OSCSCs, cisplatin 10-80 μg/ml for 18 h in FIG. 1F

Molecule | cell death (OSCCs) | cell death (OSCSCs; NK-differentiated OSCSCs) | cell death (OSCSCs; [4]) | cell death (MP2 tumors [1]) | cell death (PL12 tumors) | cell death [2] | also measured
CC(=O)N[C@@H](CS)C(=O)O [NAC, N-Acetyl Cysteine] |  |  |  |  |  |  | paclitaxel mediated cell death on addition of NAC (MP2 tumors [1]; NAC (20 nM) 24 h, followed by paclitaxel): increased paclitaxel mediated cell death; paclitaxel mediated cell death on addition of NAC (Capan tumors; NAC then paclitaxel): increased paclitaxel mediated cell death; paclitaxel mediated cell death on addition of NAC (PL12 tumors; NAC then paclitaxel): increased paclitaxel mediated cell death; paclitaxel mediated cell death on addition of NAC ([2]; NAC (20 nM) 24 h, followed by paclitaxel 10 nM to 600 nM): increased cell death; also recorded: increased paclitaxel mediated death
rhIFN-γ: recombinant human IFN-γ from Biolegend |  |  |  |  |  |  | surface expression of B7H1 (MP2 tumors [3]): able to upregulate B7H1; surface expression of CD44, CD54, MHC-class I and B7H1 (MP2 tumors [3]; rhTNF-α 20 ng/mL): increase surface expression of CD54 and MHC-class I
N.N.[Cl][Pt][Cl] [CDDP, cis-dichlorodiammineplatinum] | higher cell death | higher cell death | not susceptible to CDDP induced cell death; also recorded: minimal effects | resistant | killed | killed | 
CC(=O)O[C@H]1C(=O)[C@@]2(C)[C@H]([C@H](OC(=O)c3ccccc3)[C@]3(O)C[C@H](OC(=O)[C@H](O)[C@@H](NC(=O)c4ccccc4)c4ccccc4)C(C)=C1C3(C)C)[C@]1(OC(C)=O)CO[C@@H]1C[C@@H]2O [paclitaxel] | higher cell death | higher cell death | minimal effects | resistant | much higher levels of cell death; also recorded: higher induction of cell death; also recorded: killed | higher induction of cell death; also recorded: killed | cell death (Capan tumors; well-differentiated Capan, compared with MP2, 18-20 hours): much higher levels of cell death; also recorded: higher induction of cell death
B1 |  |  |  |  |  |  | resistance against NK cell mediated cytotoxicity (MP2): significant resistance
